# Publication PMC11252418, “Specific glycine-dependent enzyme motion determines the potency of conformation selective inhibitors of threonyl-tRNA synthetase” (Communications Biology, 2024)
# pIC50: −log10 of the molar value. “And” between values parts separate entries of the source, which are not always exact repeats. Equal values may be shown once.
# How the values were obtained:
# EcThrRS_A316N = molecular target: T1, EcThrRS_A316N (Escherichia coli, UniProt P0A8M3, A316N); assay: ATP hydrolysis assay; assay type: biochemical; conditions: OB, replicates, sheet Fig.S4b
# T1 construct: The E. coli ThrRS (residues 242-642, Supplementary Note 1) wild type; 6xHis (C); made in house; host or cells: E. coli BL21 (DE3)
# T1 sequence (P0A8M3 242-642 A316N): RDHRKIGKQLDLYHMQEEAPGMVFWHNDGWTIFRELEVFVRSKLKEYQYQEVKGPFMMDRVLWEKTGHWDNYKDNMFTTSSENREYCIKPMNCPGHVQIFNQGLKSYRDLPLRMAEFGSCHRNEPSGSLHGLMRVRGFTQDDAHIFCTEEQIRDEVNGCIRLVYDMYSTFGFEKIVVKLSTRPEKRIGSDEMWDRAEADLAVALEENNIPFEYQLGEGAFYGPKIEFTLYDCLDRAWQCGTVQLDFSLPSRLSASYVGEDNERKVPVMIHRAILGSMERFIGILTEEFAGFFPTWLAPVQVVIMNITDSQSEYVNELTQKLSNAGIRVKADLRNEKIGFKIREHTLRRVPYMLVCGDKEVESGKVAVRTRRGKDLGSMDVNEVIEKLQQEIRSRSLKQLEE
# Experimental: (§1) 200 nM EcThrRS wide type and mutants, ObaO and ObaO_S464G mutant were incubated with serially diluted OB (0 to 10 μM for EcThrRS, 0 to 40 μM for ObaO) in a buffer containing 25 mM HEPES pH 7.5, 50 mM NaCl, 40 mM MgCl2, 30 mM KCl, 0.01 mg/mL bovine serum albumin (BSA), and 0.004% Tween-20 at 37 °C for 4 h and then mixed 1:1 with a substrate mixture containing 4 μM ATP, 40 μM L-threonine, 25 mM HEPES pH 7.5, 50 mM NaCl, 40 mM MgCl2, 30 mM KCl, 0.01 mg/mL BSA, and 0.004% Tween-20. The ATP hydrolysis reaction was performed at 37 °C for 4 h.
# (§2) After incubation, the detection solution from the Kinase-Glo® luminescent kit (Promega, USA) was added to the reaction system at a 1:1 ratio, and the mixture was gently shaken for 10 min. The chemiluminescence signal was measured using a microplate reader (Tecan, USA). All experiments were performed in four replicates. The data were processed using GraphPad Prism 8 software.
# EcThrRS_G463A = molecular target: T2, EcThrRS_G463A (Escherichia coli, UniProt P0A8M3, G463A); assay: ATP hydrolysis assay; assay type: biochemical; conditions: ATP hydrolysis activity
# T2 construct: The E. coli ThrRS (residues 242-642, Supplementary Note 1) wild type; 6xHis (C); made in house; host or cells: E. coli BL21 (DE3)
# T2 sequence (P0A8M3 242-642 G463A): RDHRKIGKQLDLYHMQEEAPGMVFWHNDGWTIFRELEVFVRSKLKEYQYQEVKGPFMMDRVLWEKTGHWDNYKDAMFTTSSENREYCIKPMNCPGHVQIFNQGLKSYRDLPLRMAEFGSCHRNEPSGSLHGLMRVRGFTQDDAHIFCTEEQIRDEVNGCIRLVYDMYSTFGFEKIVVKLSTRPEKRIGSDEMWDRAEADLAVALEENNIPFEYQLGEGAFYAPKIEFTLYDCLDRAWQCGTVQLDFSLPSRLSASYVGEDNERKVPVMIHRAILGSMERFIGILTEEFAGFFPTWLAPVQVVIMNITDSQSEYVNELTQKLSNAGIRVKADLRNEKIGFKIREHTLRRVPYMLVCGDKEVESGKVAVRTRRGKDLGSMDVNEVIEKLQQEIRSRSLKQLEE
# Experimental: as §1, §2
# ObaO_S464G [1] = assay: Thermal shift assay (TSA); assay type: binding, Pseudomonas fluorescens
# Experimental: (§3) The EcThrRS_WT and L489M/G463S/G463S_Q484A/G463A/A316N mutant proteins, ObaO_WT and ObaO_S464G mutant proteins were prepared at 2 μM in buffer containing 25 mM Tris-HCl pH 7.5, 200 mM NaCl, and 20 μM OB (GlpBio, US) or BN (GlpBio, US) or ddH2O in equal volumes since the compounds were diluted with ddH2O to 1 mM as stocks. […] SYPRO orange dye (Sigma, USA) was diluted in assay buffer containing 25 mM Tris-HCl pH 7.5 and 200 mM NaCl to a 40× concentration, and was added to the mixture to a final 4× concentration. Aliquots (20 μL) were added to a 96-well PCR plate. After complete mixing, the final solutions were heated from 25 to 95 °C at a rate of 0.015 °C/s, and fluorescence signals were monitored by QuantStudio 3 (Applied Biosystems by Thermo Fisher Scientific, USA). The melting temperature (Tm) was calculated through a previously established method[56],[57].
# ObaO_WT [2] = assay: Thermal shift assay (TSA); assay type: binding, Pseudomonas fluorescens
# Experimental: as §3
# ObaO_S464G [3] = assay: ATP hydrolysis assay; assay type: biochemical, Pseudomonas fluorescens; conditions: for ATP hydrolysis activity, inhibitory curve data point: OB, replicates, sheet Fig.S11b
# Experimental: as §1, §2
# ObaO_WT [4] = assay: ATP hydrolysis assay; assay type: biochemical, Pseudomonas fluorescens; conditions: for ATP hydrolysis activity, inhibitory curve data point: OB, replicates, sheet Fig.S11b
# Experimental: as §1, §2
# [5] = 2 μM protein, 20 μM compound, mean n = 4
smiles,measurement,setting,value
"O=C(N[C@@H]1C(=O)O[C@@H]1Cc1ccc([N+](=O)[O-])cc1)c1cccc(O)c1O [OB, Obafluorin]","ATP hydrolysis activity, inhibitory curve data point","EcThrRS_A316N; Log10 Conc. 1.892, A316N",95.097 and 93.442 and 93.401 and 99.302
same,"ATP hydrolysis activity, inhibitory curve data point","EcThrRS_A316N; Log10 Conc. 2.193, A316N",78.735 and 83.708 and 90.525 and 92.235
same,"ATP hydrolysis activity, inhibitory curve data point","EcThrRS_A316N; Log10 Conc. 2.494, A316N",68.683 and 74.410 and 84.890 and 82.431
same,"ATP hydrolysis activity, inhibitory curve data point","EcThrRS_A316N; Log10 Conc. 2.796, A316N",50.753 and 55.935 and 67.595 and 73.554
same,"ATP hydrolysis activity, inhibitory curve data point","EcThrRS_A316N; Log10 Conc. 3.097, A316N",29.054 and 40.656 and 45.720 and 53.072
same,"ATP hydrolysis activity, inhibitory curve data point","EcThrRS_A316N; Log10 Conc. 3.398, A316N",-3.828 and 7.860 and 7.462 and 26.771
same,"ATP hydrolysis activity, inhibitory curve data point","EcThrRS_A316N; Log10 Conc. 3.699, A316N",7.311 and 15.246 and 17.984 and 36.982
same,inhibitory effect,EcThrRS_G463A,no inhibitory effect
same,ΔTm (increase of Tm),ObaO_S464G [1]; [5],14.1 °C
same,"ΔTm, single replicates","ObaO_S464G [1]; source data sheet Fig.S11a, ObaO_S464G, in °C (unit assumed)",14.753 and 14.195 and 14.134 and 13.328
same,ΔTm (increase of Tm),ObaO_WT [2]; [5],3.2 °C
same,"ΔTm, single replicates","ObaO_WT [2]; source data sheet Fig.S11a, ObaO_WT, in °C (unit assumed)",3.257 and 4.712 and 2.142 and 2.576
same,pIC50,ObaO_S464G [3]; ATP hydrolysis activity,5.41
same,"ATP hydrolysis activity, inhibitory curve data point","ObaO_S464G [3]; Log10 Conc. 1.290, ObaO_S464G",99.512 and 99.495 and 99.321 and 98.415
same,"ATP hydrolysis activity, inhibitory curve data point","ObaO_S464G [3]; Log10 Conc. 1.591, ObaO_S464G",100.192 and 100.232 and 100.159 and 99.124
same,"ATP hydrolysis activity, inhibitory curve data point","ObaO_S464G [3]; Log10 Conc. 1.892, ObaO_S464G",100.052 and 100.356 and 99.951 and 99.355
same,"ATP hydrolysis activity, inhibitory curve data point","ObaO_S464G [3]; Log10 Conc. 2.193, ObaO_S464G",99.838 and 99.793 and 100.063 and 99.551
same,"ATP hydrolysis activity, inhibitory curve data point","ObaO_S464G [3]; Log10 Conc. 2.494, ObaO_S464G",100.255 and 99.793 and 99.917 and 100.035
same,"ATP hydrolysis activity, inhibitory curve data point","ObaO_S464G [3]; Log10 Conc. 2.796, ObaO_S464G",99.484 and 99.326 and 99.169 and 98.438
same,"ATP hydrolysis activity, inhibitory curve data point","ObaO_S464G [3]; Log10 Conc. 3.097, ObaO_S464G",97.897 and 97.852 and 97.621 and 97.352
same,"ATP hydrolysis activity, inhibitory curve data point","ObaO_S464G [3]; Log10 Conc. 3.398, ObaO_S464G",93.815 and 92.992 and 93.578 and 91.403
same,"ATP hydrolysis activity, inhibitory curve data point","ObaO_S464G [3]; Log10 Conc. 3.699, ObaO_S464G",77.343 and 76.749 and 76.793 and 77.009
same,"ATP hydrolysis activity, inhibitory curve data point","ObaO_S464G [3]; Log10 Conc. 4.000, ObaO_S464G",40.598 and 39.832 and 38.831 and 45.976
same,"ATP hydrolysis activity, inhibitory curve data point","ObaO_S464G [3]; Log10 Conc. 4.301, ObaO_S464G",-1.615 and -1.887 and 0.161 and 3.342
same,inhibitory effect,ObaO_WT [4]; ATP hydrolysis activity,no inhibitory effect
same,"ATP hydrolysis activity, inhibitory curve data point","ObaO_WT [4]; Log10 Conc. 1.290, ObaO_WT",107.974 and 109.176 and 107.694 and 98.285
same,"ATP hydrolysis activity, inhibitory curve data point","ObaO_WT [4]; Log10 Conc. 1.591, ObaO_WT",108.081 and 109.543 and 108.587 and 102.335
same,"ATP hydrolysis activity, inhibitory curve data point","ObaO_WT [4]; Log10 Conc. 1.892, ObaO_WT",104.532 and 105.736 and 104.839 and 104.593
same,"ATP hydrolysis activity, inhibitory curve data point","ObaO_WT [4]; Log10 Conc. 2.193, ObaO_WT",105.347 and 104.330 and 104.759 and 104.369
same,"ATP hydrolysis activity, inhibitory curve data point","ObaO_WT [4]; Log10 Conc. 2.494, ObaO_WT",105.496 and 103.616 and 104.222 and 104.732
same,"ATP hydrolysis activity, inhibitory curve data point","ObaO_WT [4]; Log10 Conc. 2.796, ObaO_WT",106.437 and 103.177 and 103.705 and 104.207
same,"ATP hydrolysis activity, inhibitory curve data point","ObaO_WT [4]; Log10 Conc. 3.097, ObaO_WT",106.181 and 102.182 and 103.687 and 102.015
same,"ATP hydrolysis activity, inhibitory curve data point","ObaO_WT [4]; Log10 Conc. 3.398, ObaO_WT",106.327 and 105.039 and 104.877 and 99.875
same,"ATP hydrolysis activity, inhibitory curve data point","ObaO_WT [4]; Log10 Conc. 3.699, ObaO_WT",106.394 and 102.812 and 104.598 and 101.892
same,"ATP hydrolysis activity, inhibitory curve data point","ObaO_WT [4]; Log10 Conc. 4.000, ObaO_WT",107.419 and 105.942 and 102.834 and 91.914
same,"ATP hydrolysis activity, inhibitory curve data point","ObaO_WT [4]; Log10 Conc. 4.301, ObaO_WT",100.516 and 99.049 and 100.129 and 101.285
